{"source": "patent US7612064B2", "about": "“Sulfopyrroles” (Takeda Pharmaceutical Company Limited, priority 2003, dated 2009);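 as to Hoechst 33342 nuclear staining score, H460: apoptotic nuclei scored 0 none 1 weak under 50% of cells 2 strong over 50% of cells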;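 as to Hoechst 33342 nuclear staining score, HeLa: apoptotic nuclei scored 0 none 1 weak under 50% of cells 2 strong over 50% of cells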;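 as to Hoechst 33342 nuclear staining score, Jily: apoptotic nuclei scored 0 none 1 weak under 50% of cells 2 strong over 50% of cells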;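 as to Hoechst 33342 nuclear staining score, Jurkat: apoptotic nuclei scored 0 none 1 weak under 50% of cells 2 strong over 50% of cells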; as to Hoechst 33342 nuclear staining score, PBLs: key: 0: no activity; 1: weak activity comprising less than 50% of the cells; 2: strong activity comprising more than 50% of the cells", "key": {"Jurkat": {"tested_on": "Jurkat", "test": "MTS proliferation assay", "assay_type": "cell-based, human", "details": "72 h", "summary_of_the_method": "(§1)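 Compounds at final 10/3/1/0.3 μM (added in complete medium, ≤5% DMSO); 72 h, culture conditions; + MTS, 3 h; A492.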"}, "HeLa": {"tested_on": "HeLa", "test": "MTS proliferation assay", "assay_type": "cell-based, human", "details": "72 h", "summary_of_the_method": "as §1"}, "[1]": {"test": "Hoechst 33342 nuclear staining", "assay_type": "cell-based", "details": "for Hoechst 33342 nuclear staining score, HeLa: HeLa cells; for Hoechst 33342 nuclear staining score, Jurkat: Jurkat cells; for Hoechst 33342 nuclear staining score, H460: H460 cells; for Hoechst 33342 nuclear staining score, Jily: Jily cells; for Hoechst 33342 nuclear staining score, MRC5: MRC5 cells", "summary_of_the_method": "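Cells were plated in 96 well tissue culture plates in 80 μl complete medium, with 3-5*10^3 cells per well for adherent lines and 8-10*10^3 for suspension lines. Adherent cells spread for 24 h before treatment, while suspension cells were treated right after seeding. Compounds were added in 20 μl complete medium containing max 5% DMSO.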"}, "MRC5": {"tested_on": "MRC5", "test": "MTS proliferation assay", "assay_type": "cell-based", "details": "MRC5, 72 h", "summary_of_the_method": "as §1"}, "[2]": {"details": "conc 0.1 (final concentrations in μM), 24 h or 48 h incubation"}, "[3]": {"details": "conc 0.3 (final concentrations in μM), 24 h or 48 h incubation"}, "[4]": {"details": "conc 1 (final concentrations in μM), 24 h or 48 h incubation"}, "[5]": {"details": "conc 3 (final concentrations in μM), 24 h or 48 h incubation"}, "[6]": {"details": "conc 10 (final concentrations in μM), 24 h or 48 h incubation"}}, "data": [{"smiles": "Cc1ccc(S(=O)(=O)n2cc(-c3cncc(C(N)=O)c3)cc2-c2ccc3c(c2)OCO3)cc1", "note": "[Example 50]", "values": [{"measurement": "IC50", "setting": "Jurkat", "result": "< 1000", "unit": "nM"}, {"measurement": "IC50", "setting": "HeLa", "result": "> 1000", "unit": "nM"}, {"measurement": "Hoechst 33342 nuclear staining score, HeLa", "setting": "[1]; [2]", "result": 0}, {"measurement": "Hoechst 33342 nuclear staining score, HeLa", "setting": "[1]; [3]", "result": 0}, {"measurement": "Hoechst 33342 nuclear staining score, HeLa", "setting": "[1]; [4]", "result": 0}, {"measurement": "Hoechst 33342 nuclear staining score, HeLa", "setting": "[1]; [5]", "result": "2 (strong activity comprising more than 50% of the cells)"}, {"measurement": "Hoechst 33342 nuclear staining score, Jurkat", "setting": "[1]; [2]", "result": 0}, {"measurement": "Hoechst 33342 nuclear staining score, Jurkat", "setting": "[1]; [3]", "result": 0}, {"measurement": "Hoechst 33342 nuclear staining score, Jurkat", "setting": "[1]; [4]", "result": 0}, {"measurement": "Hoechst 33342 nuclear staining score, Jurkat", "setting": "[1]; [5]", "result": "2 (strong activity comprising more than 50% of the cells)"}, {"measurement": "IC50", "setting": "MRC5", "result": "> 1000", "unit": "nM"}]}, {"smiles": "COc1cc(-c2cc(CNc3ccc4[nH]nnc4c3)cn2S(=O)(=O)c2ccc(C)cc2)cc(OC)c1OC", "note": "[Example 69]", "values": [{"measurement": "IC50", "setting": "Jurkat", "result": "< 1000", "unit": "nM"}, {"measurement": "IC50", "setting": "HeLa", "result": "> 1000", "unit": "nM"}, {"measurement": "Hoechst 33342 nuclear staining score, H460", "setting": "[1]; conc 0.1", "result": 0}, {"measurement": "Hoechst 33342 nuclear staining score, H460", "setting": "[1]; conc 0.3", "result": 0}, {"measurement": "Hoechst 33342 nuclear staining score, H460", "setting": "[1]; conc 1", "result": 0}, {"measurement": "Hoechst 33342 nuclear staining score, H460", "setting": "[1]; conc 3", "result": "2 (strong activity comprising more than 50% of the cells)"}, {"measurement": "Hoechst 33342 nuclear staining score, HeLa", "setting": "[1]; conc 0.1", "result": 0}, {"measurement": "Hoechst 33342 nuclear staining score, HeLa", "setting": "[1]; conc 0.3", "result": 0}, {"measurement": "Hoechst 33342 nuclear staining score, HeLa", "setting": "[1]; conc 1", "result": 0}, {"measurement": "Hoechst 33342 nuclear staining score, HeLa", "setting": "[1]; conc 3", "result": "2 (strong activity comprising more than 50% of the cells)"}, {"measurement": "Hoechst 33342 nuclear staining score, Jily", "setting": "[1]; conc 0.1", "result": 0}, {"measurement": "Hoechst 33342 nuclear staining score, Jily", "setting": "[1]; conc 0.3", "result": 0}, {"measurement": "Hoechst 33342 nuclear staining score, Jily", "setting": "[1]; conc 1", "result": "1 (weak activity comprising less than 50% of the cells)"}, {"measurement": "Hoechst 33342 nuclear staining score, Jily", "setting": "[1]; conc 3", "result": "2 (strong activity comprising more than 50% of the cells)"}, {"measurement": "Hoechst 33342 nuclear staining score, Jurkat", "setting": "[1]; conc 0.1", "result": 0}, {"measurement": "Hoechst 33342 nuclear staining score, Jurkat", "setting": "[1]; conc 0.3", "result": 0}, {"measurement": "Hoechst 33342 nuclear staining score, Jurkat", "setting": "[1]; conc 1", "result": "2 (strong activity comprising more than 50% of the cells)"}, {"measurement": "Hoechst 33342 nuclear staining score, Jurkat", "setting": "[1]; conc 3", "result": "2 (strong activity comprising more than 50% of the cells)"}, {"measurement": "Hoechst 33342 nuclear staining score, MRC5", "setting": "[1]; conc 0.1", "result": 0}, {"measurement": "Hoechst 33342 nuclear staining score, MRC5", "setting": "[1]; conc 0.3", "result": 0}, {"measurement": "Hoechst 33342 nuclear staining score, MRC5", "setting": "[1]; conc 1", "result": 0}, {"measurement": "Hoechst 33342 nuclear staining score, MRC5", "setting": "[1]; conc 3", "result": "2 (strong activity comprising more than 50% of the cells)"}, {"measurement": "Hoechst 33342 nuclear staining score, PBLs", "setting": "[1]; conc 0.1", "result": 0}, {"measurement": "Hoechst 33342 nuclear staining score, PBLs", "setting": "[1]; conc 0.3", "result": 0}, {"measurement": "Hoechst 33342 nuclear staining score, PBLs", "setting": "[1]; conc 1", "result": 0}, {"measurement": "Hoechst 33342 nuclear staining score, PBLs", "setting": "[1]; conc 3", "result": 0}, {"measurement": "IC50", "setting": "MRC5", "result": "> 1000", "unit": "nM"}]}, {"smiles": "Cc1ccc(S(=O)(=O)n2cc(CN(C)C3CCN(Cc4ccccc4)C3)cc2-c2ccc3c(c2)OCO3)cc1", "note": "(centres unmarked) [Example 25]", "values": [{"measurement": "IC50", "setting": "Jurkat", "result": "> 1000", "unit": "nM"}, {"measurement": "IC50", "setting": "HeLa", "result": "> 1000", "unit": "nM"}, {"measurement": "Hoechst 33342 nuclear staining score, HeLa", "setting": "[1]; [2]", "result": 0}, {"measurement": "Hoechst 33342 nuclear staining score, HeLa", "setting": "[1]; [3]", "result": 0}, {"measurement": "Hoechst 33342 nuclear staining score, HeLa", "setting": "[1]; [4]", "result": 0}, {"measurement": "Hoechst 33342 nuclear staining score, HeLa", "setting": "[1]; [5]", "result": "1 (weak activity comprising less than 50% of the cells)"}, {"measurement": "Hoechst 33342 nuclear staining score, Jurkat", "setting": "[1]; [2]", "result": 0}, {"measurement": "Hoechst 33342 nuclear staining score, Jurkat", "setting": "[1]; [3]", "result": 0}, {"measurement": "Hoechst 33342 nuclear staining score, Jurkat", "setting": "[1]; [4]", "result": 0}, {"measurement": "Hoechst 33342 nuclear staining score, Jurkat", "setting": "[1]; [5]", "result": 0}, {"measurement": "IC50", "setting": "MRC5", "result": "> 1000", "unit": "nM"}]}, {"smiles": "CCN(CC)CCN(C)Cc1cc(-c2ccc3c(c2)OCO3)n(S(=O)(=O)c2ccc(C)cc2)c1", "note": "[Example 19]", "values": [{"measurement": "IC50", "setting": "Jurkat", "result": "> 1000", "unit": "nM"}, {"measurement": "IC50", "setting": "HeLa", "result": "> 1000", "unit": "nM"}, {"measurement": "Hoechst 33342 nuclear staining score, HeLa", "setting": "[1]; [2]", "result": 0}, {"measurement": "Hoechst 33342 nuclear staining score, HeLa", "setting": "[1]; [3]", "result": 0}, {"measurement": "Hoechst 33342 nuclear staining score, HeLa", "setting": "[1]; [4]", "result": 0}, {"measurement": "Hoechst 33342 nuclear staining score, HeLa", "setting": "[1]; [5]", "result": 0}, {"measurement": "Hoechst 33342 nuclear staining score, Jurkat", "setting": "[1]; [2]", "result": 0}, {"measurement": "Hoechst 33342 nuclear staining score, Jurkat", "setting": "[1]; [3]", "result": 0}, {"measurement": "Hoechst 33342 nuclear staining score, Jurkat", "setting": "[1]; [4]", "result": 0}, {"measurement": "Hoechst 33342 nuclear staining score, Jurkat", "setting": "[1]; [5]", "result": 0}, {"measurement": "IC50", "setting": "MRC5", "result": "> 1000", "unit": "nM"}]}, {"smiles": "Cc1ccc(S(=O)(=O)n2cc(CNc3ccc(N4CCOCC4)c(Cl)c3)cc2-c2ccc3c(c2)OCO3)cc1", "note": "[Example 38]", "values": [{"measurement": "IC50", "setting": "Jurkat", "result": "> 1000", "unit": "nM"}, {"measurement": "IC50", "setting": "HeLa", "result": "> 1000", "unit": "nM"}, {"measurement": "Hoechst 33342 nuclear staining score, HeLa", "setting": "[1]; [3]", "result": 0}, {"measurement": "Hoechst 33342 nuclear staining score, HeLa", "setting": "[1]; [4]", "result": 0}, {"measurement": "Hoechst 33342 nuclear staining score, HeLa", "setting": "[1]; [5]", "result": 0}, {"measurement": "Hoechst 33342 nuclear staining score, HeLa", "setting": "[1]; [6]", "result": 0}, {"measurement": "Hoechst 33342 nuclear staining score, Jurkat", "setting": "[1]; [3]", "result": 0}, {"measurement": "Hoechst 33342 nuclear staining score, Jurkat", "setting": "[1]; [4]", "result": 0}, {"measurement": "Hoechst 33342 nuclear staining score, Jurkat", "setting": "[1]; [5]", "result": 0}, {"measurement": "Hoechst 33342 nuclear staining score, Jurkat", "setting": "[1]; [6]", "result": 0}, {"measurement": "IC50", "setting": "MRC5", "result": "> 1000", "unit": "nM"}]}]}
